Laboratory results from PMC3814616, “BRAF inhibitors suppress apoptosis through off-target inhibition of JNK signaling” (eLife, 2013).
pIC50: −log10 of the molar value.

Assays:
Experiment in all cases: Quantitative competitive binding assay (KINOMEscan)
[1] = molecular target: T1, TAOK1 (Homo sapiens, UniProt Q7L7X3); conditions: for remaining binding at 0.2 µM: read-out: Percent control (200 nM); for remaining binding at 1 µM: read-out: Percent control (1000 nM); for remaining binding at 10 µM: read-out: Percent control (10 μM)
T1 construct: purchased KINOMEscan (DiscoveRx), San Diego, CA
T1 sequence (Q7L7X3 1-1001): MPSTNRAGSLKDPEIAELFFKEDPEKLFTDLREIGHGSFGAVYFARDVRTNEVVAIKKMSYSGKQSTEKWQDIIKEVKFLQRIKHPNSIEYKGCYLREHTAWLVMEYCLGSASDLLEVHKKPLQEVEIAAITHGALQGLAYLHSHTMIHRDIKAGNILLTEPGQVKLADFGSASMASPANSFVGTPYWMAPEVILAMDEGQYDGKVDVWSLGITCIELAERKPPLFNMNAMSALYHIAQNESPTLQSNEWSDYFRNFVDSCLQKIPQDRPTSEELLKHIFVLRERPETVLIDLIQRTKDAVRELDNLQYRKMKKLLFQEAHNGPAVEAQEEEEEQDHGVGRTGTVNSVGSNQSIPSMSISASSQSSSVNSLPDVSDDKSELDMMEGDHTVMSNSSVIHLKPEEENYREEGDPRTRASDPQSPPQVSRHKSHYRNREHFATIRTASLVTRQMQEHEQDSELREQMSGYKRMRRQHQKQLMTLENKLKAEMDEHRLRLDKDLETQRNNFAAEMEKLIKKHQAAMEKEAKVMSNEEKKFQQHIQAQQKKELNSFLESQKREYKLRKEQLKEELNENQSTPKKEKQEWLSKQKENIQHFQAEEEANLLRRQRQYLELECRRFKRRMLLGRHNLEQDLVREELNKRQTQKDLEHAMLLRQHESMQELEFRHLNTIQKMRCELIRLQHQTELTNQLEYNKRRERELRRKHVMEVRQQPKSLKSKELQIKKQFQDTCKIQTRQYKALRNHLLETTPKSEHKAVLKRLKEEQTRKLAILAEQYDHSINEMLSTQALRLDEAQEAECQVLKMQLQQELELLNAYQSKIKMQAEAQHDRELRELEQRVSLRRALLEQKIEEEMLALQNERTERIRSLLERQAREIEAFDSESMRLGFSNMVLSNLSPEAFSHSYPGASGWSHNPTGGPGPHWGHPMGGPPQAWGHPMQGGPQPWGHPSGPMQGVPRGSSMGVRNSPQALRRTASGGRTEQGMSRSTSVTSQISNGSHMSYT

[2] = molecular target: T2, TAOK2 (Homo sapiens, UniProt Q9UL54); conditions: for remaining binding at 0.05 µM: read-out: Percent control (50 nM); for remaining binding at 0.2 µM: read-out: Percent control (200 nM); for remaining binding at 1 µM: read-out: Percent control (1000 nM); for remaining binding at 10 µM: read-out: Percent control (10 μM)
T2 construct: purchased KINOMEscan (DiscoveRx), San Diego, CA
T2 sequence (Q9UL54 1-1235): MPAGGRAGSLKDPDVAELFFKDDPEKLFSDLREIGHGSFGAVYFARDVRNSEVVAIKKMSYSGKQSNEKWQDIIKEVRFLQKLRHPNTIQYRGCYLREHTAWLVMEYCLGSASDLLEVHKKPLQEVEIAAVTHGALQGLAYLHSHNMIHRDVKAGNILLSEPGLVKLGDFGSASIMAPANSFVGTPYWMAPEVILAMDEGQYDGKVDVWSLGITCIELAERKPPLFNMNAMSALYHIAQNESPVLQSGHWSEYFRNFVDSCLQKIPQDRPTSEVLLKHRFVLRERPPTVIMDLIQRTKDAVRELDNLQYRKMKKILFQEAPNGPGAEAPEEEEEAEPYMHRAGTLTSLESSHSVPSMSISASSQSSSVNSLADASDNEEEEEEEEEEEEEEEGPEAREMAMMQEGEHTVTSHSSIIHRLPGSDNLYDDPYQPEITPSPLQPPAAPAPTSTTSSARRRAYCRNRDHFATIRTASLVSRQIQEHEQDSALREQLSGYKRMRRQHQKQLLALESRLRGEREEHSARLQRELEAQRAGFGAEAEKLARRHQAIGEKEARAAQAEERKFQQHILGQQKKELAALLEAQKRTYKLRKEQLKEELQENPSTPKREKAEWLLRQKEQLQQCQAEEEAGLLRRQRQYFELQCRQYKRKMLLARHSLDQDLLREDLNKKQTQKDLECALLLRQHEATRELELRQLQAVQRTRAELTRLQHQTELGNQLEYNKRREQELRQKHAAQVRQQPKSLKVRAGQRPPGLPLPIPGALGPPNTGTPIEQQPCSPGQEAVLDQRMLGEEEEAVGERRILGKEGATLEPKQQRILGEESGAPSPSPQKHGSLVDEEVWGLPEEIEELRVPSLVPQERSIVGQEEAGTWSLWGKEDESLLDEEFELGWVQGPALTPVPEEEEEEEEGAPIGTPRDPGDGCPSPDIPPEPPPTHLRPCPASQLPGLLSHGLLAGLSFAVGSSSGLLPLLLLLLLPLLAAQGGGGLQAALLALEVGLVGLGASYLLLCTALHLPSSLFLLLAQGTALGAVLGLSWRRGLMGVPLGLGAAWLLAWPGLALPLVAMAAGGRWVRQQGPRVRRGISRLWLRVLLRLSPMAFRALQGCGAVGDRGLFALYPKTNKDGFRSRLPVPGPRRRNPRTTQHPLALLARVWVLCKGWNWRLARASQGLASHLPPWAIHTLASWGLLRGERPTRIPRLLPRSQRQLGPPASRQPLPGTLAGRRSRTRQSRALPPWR

[3] = molecular target: T3, ZAK (Homo sapiens, UniProt Q9NYL2); conditions: for remaining binding at 0.05 µM: read-out: Percent control (50 nM); for remaining binding at 0.2 µM: read-out: Percent control (200 nM); for remaining binding at 1 µM: read-out: Percent control (1000 nM); for remaining binding at 10 µM: read-out: Percent control (10 μM)
T3 construct: purchased KINOMEscan (DiscoveRx), San Diego, CA
T3 sequence (Q9NYL2 whole entry): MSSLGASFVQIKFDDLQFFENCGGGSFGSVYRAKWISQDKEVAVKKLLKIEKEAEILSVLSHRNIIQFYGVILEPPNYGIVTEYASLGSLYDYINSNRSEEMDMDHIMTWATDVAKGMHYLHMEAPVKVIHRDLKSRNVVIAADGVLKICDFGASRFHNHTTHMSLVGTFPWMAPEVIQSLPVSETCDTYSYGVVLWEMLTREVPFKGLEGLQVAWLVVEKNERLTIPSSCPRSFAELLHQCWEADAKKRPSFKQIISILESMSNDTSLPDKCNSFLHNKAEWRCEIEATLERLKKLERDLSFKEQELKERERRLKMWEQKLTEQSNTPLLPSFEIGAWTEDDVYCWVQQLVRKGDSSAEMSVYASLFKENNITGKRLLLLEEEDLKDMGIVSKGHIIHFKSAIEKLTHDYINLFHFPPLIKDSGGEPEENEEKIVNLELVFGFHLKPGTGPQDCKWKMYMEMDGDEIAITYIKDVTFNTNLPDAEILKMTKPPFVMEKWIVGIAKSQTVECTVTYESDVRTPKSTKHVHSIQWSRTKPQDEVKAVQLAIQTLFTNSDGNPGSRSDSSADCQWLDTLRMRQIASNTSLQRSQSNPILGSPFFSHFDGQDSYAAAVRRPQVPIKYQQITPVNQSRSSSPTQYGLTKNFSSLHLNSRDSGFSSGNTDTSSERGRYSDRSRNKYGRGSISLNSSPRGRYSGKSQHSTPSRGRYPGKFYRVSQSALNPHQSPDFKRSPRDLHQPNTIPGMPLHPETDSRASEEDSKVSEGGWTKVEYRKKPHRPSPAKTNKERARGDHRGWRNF

[4] = molecular target: T4, MLK2 (MAP3K10) (Homo sapiens, UniProt Q02779); conditions: for remaining binding at 0.05 µM: read-out: Percent control (50 nM); for remaining binding at 0.2 µM: read-out: Percent control (200 nM); for remaining binding at 10 µM: read-out: Percent control (10 μM)
T4 construct: purchased KINOMEscan (DiscoveRx), San Diego, CA
T4 sequence (Q02779 whole entry): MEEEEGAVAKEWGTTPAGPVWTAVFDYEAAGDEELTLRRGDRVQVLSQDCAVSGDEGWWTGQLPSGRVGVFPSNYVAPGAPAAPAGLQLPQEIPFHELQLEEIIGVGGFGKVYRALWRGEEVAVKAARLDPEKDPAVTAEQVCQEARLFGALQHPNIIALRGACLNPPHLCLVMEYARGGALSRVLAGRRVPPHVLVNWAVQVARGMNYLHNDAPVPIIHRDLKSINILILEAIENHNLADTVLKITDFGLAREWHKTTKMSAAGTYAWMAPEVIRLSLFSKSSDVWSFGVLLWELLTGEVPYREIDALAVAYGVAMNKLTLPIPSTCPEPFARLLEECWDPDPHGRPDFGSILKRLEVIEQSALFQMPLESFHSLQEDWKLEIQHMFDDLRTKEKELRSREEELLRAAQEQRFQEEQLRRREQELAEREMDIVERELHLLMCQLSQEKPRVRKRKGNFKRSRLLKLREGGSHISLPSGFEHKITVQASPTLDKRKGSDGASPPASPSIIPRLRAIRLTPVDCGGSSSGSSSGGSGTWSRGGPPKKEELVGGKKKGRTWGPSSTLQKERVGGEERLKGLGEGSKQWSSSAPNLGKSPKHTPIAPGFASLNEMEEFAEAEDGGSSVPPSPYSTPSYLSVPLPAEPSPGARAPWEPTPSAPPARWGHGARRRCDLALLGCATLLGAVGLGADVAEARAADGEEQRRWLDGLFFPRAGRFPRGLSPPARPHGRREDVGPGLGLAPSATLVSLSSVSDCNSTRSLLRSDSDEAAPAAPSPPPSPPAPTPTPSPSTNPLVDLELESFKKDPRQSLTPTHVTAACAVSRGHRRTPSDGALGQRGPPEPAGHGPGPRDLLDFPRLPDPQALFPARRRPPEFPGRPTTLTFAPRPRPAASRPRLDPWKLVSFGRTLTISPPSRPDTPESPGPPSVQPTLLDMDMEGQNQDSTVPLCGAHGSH

[5] = molecular target: T5, DLK (MAP3K12) (Homo sapiens, UniProt Q12852); conditions: for remaining binding at 0.05 µM: read-out: Percent control (50 nM); for remaining binding at 0.2 µM: read-out: Percent control (200 nM); for remaining binding at 1 µM: read-out: Percent control (1000 nM); for remaining binding at 10 µM: read-out: Percent control (10 μM)
T5 construct: purchased KINOMEscan (DiscoveRx), San Diego, CA
T5 sequence (Q12852 whole entry): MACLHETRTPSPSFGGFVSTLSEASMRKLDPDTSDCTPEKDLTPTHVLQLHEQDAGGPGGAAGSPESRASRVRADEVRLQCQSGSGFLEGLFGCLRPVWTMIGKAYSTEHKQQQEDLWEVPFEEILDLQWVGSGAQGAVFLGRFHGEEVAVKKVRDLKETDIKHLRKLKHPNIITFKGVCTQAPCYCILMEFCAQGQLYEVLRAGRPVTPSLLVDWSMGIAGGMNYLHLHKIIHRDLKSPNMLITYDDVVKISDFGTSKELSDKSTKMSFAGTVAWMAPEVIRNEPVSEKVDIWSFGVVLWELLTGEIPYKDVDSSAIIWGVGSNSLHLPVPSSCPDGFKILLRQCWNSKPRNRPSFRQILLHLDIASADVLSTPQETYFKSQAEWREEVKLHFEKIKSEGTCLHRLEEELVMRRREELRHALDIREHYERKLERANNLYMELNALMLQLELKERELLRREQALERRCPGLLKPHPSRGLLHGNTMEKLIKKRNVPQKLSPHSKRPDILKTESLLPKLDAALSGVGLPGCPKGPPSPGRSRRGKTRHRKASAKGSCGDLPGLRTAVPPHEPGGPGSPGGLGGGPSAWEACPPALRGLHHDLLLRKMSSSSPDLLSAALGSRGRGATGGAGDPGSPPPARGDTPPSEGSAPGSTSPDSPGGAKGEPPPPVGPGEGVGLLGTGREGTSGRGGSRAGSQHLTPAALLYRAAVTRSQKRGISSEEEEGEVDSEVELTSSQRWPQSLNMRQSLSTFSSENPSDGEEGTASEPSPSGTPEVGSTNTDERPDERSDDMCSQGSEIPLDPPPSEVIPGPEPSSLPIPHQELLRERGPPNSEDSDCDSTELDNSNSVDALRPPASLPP

[6] = molecular target: T6, TAK1 (MAP3K7) (Homo sapiens, UniProt O43318); conditions: for remaining binding at 0.05 µM: read-out: Percent control (50 nM); for remaining binding at 0.2 µM: read-out: Percent control (200 nM); for remaining binding at 1 µM: read-out: Percent control (1000 nM); for remaining binding at 10 µM: read-out: Percent control (10 μM)
T6 construct: purchased KINOMEscan (DiscoveRx), San Diego, CA
T6 sequence (O43318 whole entry): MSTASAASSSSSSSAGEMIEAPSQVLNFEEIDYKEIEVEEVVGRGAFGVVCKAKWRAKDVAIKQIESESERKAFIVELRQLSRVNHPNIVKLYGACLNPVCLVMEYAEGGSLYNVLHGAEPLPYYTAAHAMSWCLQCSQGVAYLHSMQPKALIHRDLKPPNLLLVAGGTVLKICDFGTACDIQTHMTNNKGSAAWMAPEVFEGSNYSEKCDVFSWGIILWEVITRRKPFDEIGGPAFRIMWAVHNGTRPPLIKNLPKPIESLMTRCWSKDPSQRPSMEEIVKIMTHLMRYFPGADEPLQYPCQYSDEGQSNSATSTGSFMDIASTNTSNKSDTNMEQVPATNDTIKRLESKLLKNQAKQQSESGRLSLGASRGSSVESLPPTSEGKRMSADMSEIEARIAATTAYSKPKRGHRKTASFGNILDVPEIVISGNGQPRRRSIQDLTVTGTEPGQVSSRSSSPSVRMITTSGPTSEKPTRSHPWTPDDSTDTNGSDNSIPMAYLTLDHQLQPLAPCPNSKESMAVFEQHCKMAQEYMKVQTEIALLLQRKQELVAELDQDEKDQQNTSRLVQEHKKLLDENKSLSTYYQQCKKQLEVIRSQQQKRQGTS

[7] = estimated Kd, averaged pointwise estimates, transformed Hill equation, read-out: Calculated estimate of IC50

## CCCS(=O)(=O)Nc1ccc(F)c(C(=O)c2c[nH]c3ncc(Cl)cc23)c1F [PLX4720]
[1]; [7]
  pIC50: 5.12
[1]; read-out: Percent control (50 nM)
  remaining binding at 0.05 µM: 87%
[1]
  remaining binding at 0.2 µM: 94%
  remaining binding at 1 µM: 89%
  remaining binding at 10 µM: 65%
[2]
  remaining binding at 0.05 µM: 92%
  remaining binding at 0.2 µM: 100%
  remaining binding at 1 µM: 93%
  remaining binding at 10 µM: 51%
[3]
  remaining binding at 0.05 µM: 20%
  remaining binding at 0.2 µM: 4%
  remaining binding at 1 µM: 0.7%
  remaining binding at 10 µM: 0.1%
[4]
  remaining binding at 0.05 µM: 100%
  remaining binding at 0.2 µM: 82%
  remaining binding at 10 µM: 76%
[4]; read-out: Percent control (1000 nM)
  remaining binding at 1 µM: 100%
[5]
  remaining binding at 0.05 µM: 95%
  remaining binding at 0.2 µM: 98%
  remaining binding at 1 µM: 100%
  remaining binding at 10 µM: 92%
[6]
  remaining binding at 0.05 µM: 90%
  remaining binding at 0.2 µM: 88%
  remaining binding at 1 µM: 85%
  remaining binding at 10 µM: 49%

## CCCS(=O)(=O)Nc1ccc(F)c(C(=O)c2c[nH]c3ncc(-c4ccc(Cl)cc4)cc23)c1F [vemurafenib]
[1]
  remaining binding at 0.2 µM: 100%
  remaining binding at 1 µM: 97%
  remaining binding at 10 µM: 79%
[2]; [7]
  pIC50: 4.93
[2]
  remaining binding at 0.05 µM: 98%
  remaining binding at 0.2 µM: 92%
  remaining binding at 1 µM: 95%
  remaining binding at 10 µM: 70%
[3]; [7]
  pIC50: > 7.30
[3]
  remaining binding at 0.05 µM: 9%
  remaining binding at 0.2 µM: 1.8%
  remaining binding at 1 µM: 0.25%
  remaining binding at 10 µM: 0.05%
[4]
  remaining binding at 0.05 µM: 92%
  remaining binding at 0.2 µM: 96%
  remaining binding at 10 µM: 78%
[5]
  remaining binding at 0.05 µM: 98%
  remaining binding at 0.2 µM: 97%
  remaining binding at 1 µM: 66%
  remaining binding at 10 µM: 92%
[6]
  remaining binding at 0.05 µM: 93%
  remaining binding at 0.2 µM: 88%
  remaining binding at 1 µM: 86%
  remaining binding at 10 µM: 88%
